Data set [1] can be described thus: AUC (0 to infinity) in rat at 10 mg/kg, po. Details: time infinity, dose 10 mg/kg, route oral. As to conditions: plasma. Format: ADME, organism-based.
Data set [2] is described as follows: Oral bioavailability in rat at 10 mg/kg. It is filed as ADME, organism-based. The settings on record: in vivo.
Data set [3] can be described thus: Half life in rat at 10 mg/kg, po. Format: ADME, organism-based. Details: dose 10 mg/kg, route oral. The settings on record: in vivo.
The subject of the next data set is Lung. Nature of the data set: Drug uptake in VEGF-stimulated mouse lung at 1 mg/kg, po after 4 hrs. Format: ADME, organism-based. Details: dose 1 mg/kg, route oral. The settings on record: in vivo, BLD = below limit of detection.
Data set [4] concerns Plasma. Nature of the data set: Plasma concentration in human MDA-MB-231 cells xenografted mouse at 60 mg/kg. The settings on record: in vivo. Format: ADME, organism-based. Details: dose 60 mg/kg. (In general: In xenograft studies the graft and the host belong to different species.)
Data set [5] in a line: Drug uptake in VEGF-stimulated mouse lung at 10 mg/kg, po after 4 hrs. Format: ADME, organism-based. Details: dose 10 mg/kg, route oral. The settings on record: read-out: Drug uptake.
The subject of data set [6] is Plasma. Nature of the data set: Plasma concentration in human MDA-MB-231 cells xenografted mouse at 1 mg/kg. Format: ADME, organism-based. The settings on record: in vivo, BLD = below limit of detection. Details: dose 1 mg/kg.
The nature of data set [7]: Drug uptake in human MDA-MB-231 cells xenografted mouse tumor at 60 mg/kg. Details: dose 60 mg/kg. As to conditions: in vivo, read-out: Drug uptake. Format: ADME, organism-based, Neoplasm.
Data set [8] in a line: Drug uptake in VEGF-stimulated mouse lung at 3 mg/kg, po after 4 hrs. Format: ADME, organism-based. Details: dose 3 mg/kg, route oral. As to conditions: read-out: Drug uptake.
The subject of data set [9] is Plasma. Nature of the data set: Plasma concentration in human MDA-MB-231 cells xenografted mouse at 30 mg/kg. Format: ADME, organism-based. The settings on record: in vivo. Details: dose 30 mg/kg.
Data set [10] concerns Plasma. Nature of the data set: Plasma concentration in human MDA-MB-231 cells xenografted mouse at 10 mg/kg. It is filed as ADME, organism-based. Details: dose 10 mg/kg. As to conditions: in vivo.
The nature of data set [11]: Drug uptake in human MDA-MB-231 cells xenografted mouse tumor at 1 mg/kg. Format: ADME, organism-based, Neoplasm. Details: dose 1 mg/kg. The settings on record: in vivo, BLD = below limit of detection.
Data set [12] has as its system Plasma. Nature of the data set: Plasma concentration in human MDA-MB-231 cells xenografted mouse at 3 mg/kg. Details: dose 3 mg/kg. The settings on record: in vivo. Format: ADME, organism-based.
Data set [13] deals with Plasma. Description: Plasma concentration in human MDA-MB-231 cells xenografted mouse at 100 mg/kg. The settings on record: in vivo. Details: dose 100 mg/kg. It is filed as ADME, organism-based.
Data set [14] in a line: Drug uptake in human MDA-MB-231 cells xenografted mouse tumor at 3 mg/kg. Format: ADME, organism-based, Neoplasm. Details: dose 3 mg/kg. As to conditions: in vivo, BLD = below limit of detection.
Data set [15] is described as follows: Plasma concentration in VEGF stimulated-mouse at 30 mg/kg, po after 4 hrs. It is filed as ADME, organism-based. Details: dose 30 mg/kg, route oral.
Data set [16] is described as follows: Drug uptake in human MDA-MB-231 cells xenografted mouse tumor at 100 mg/kg. It is filed as ADME, organism-based, Neoplasm. Details: dose 100 mg/kg. As to conditions: in vivo, read-out: Drug uptake.
Data set [17] is described as follows: Drug uptake in VEGF-stimulated mouse lung at 100 mg/kg, po after 4 hrs. Format: ADME, organism-based. Details: dose 100 mg/kg, route oral. As to conditions: read-out: Drug uptake.
Data set [18] in a line: Plasma concentration in VEGF stimulated-mouse at 10 mg/kg, po after 4 hrs. It is filed as ADME, organism-based. Details: dose 10 mg/kg, route oral.
Data set [19] in a line: Permeability across MDCK cells. It is filed as ADME, cell-based, Canis lupus familiaris. The settings on record: dog, read-out: permeability.
The nature of data set [20]: Plasma concentration in VEGF stimulated-mouse at 3 mg/kg, po after 4 hrs. Format: ADME, organism-based. Details: dose 3 mg/kg, route oral.
The nature of data set [21]: Plasma concentration in VEGF stimulated-mouse at 1 mg/kg, po after 4 hrs. Format: ADME, organism-based. Details: dose 1 mg/kg, route oral.
The nature of data set [22]: Plasma concentration in VEGF stimulated-mouse at 100 mg/kg, po after 4 hrs. It is filed as ADME, organism-based. Details: dose 100 mg/kg, route oral.
A short description of data set [23]: Plasma concentration in athymic nu/nu mouse bearing human MDA-MB-231 tumor at 10 to 100 mg/kg, po administered QD for 14 days. Details: dose 10-100 mg/kg, route oral. It is filed as ADME, organism-based.
Data set [24] can be described thus: Drug uptake in VEGF-stimulated mouse lung at 30 mg/kg, po after 4 hrs. Format: ADME, organism-based. Details: dose 30 mg/kg, route oral. As to conditions: read-out: Drug uptake.
The nature of data set [25]: Drug uptake in VEGF-stimulated mouse lung at 60 mg/kg, po after 4 hrs. Format: ADME, organism-based. Details: dose 60 mg/kg, route oral. The settings on record: read-out: Drug uptake.
Data set [26] can be described thus: Plasma concentration in VEGF stimulated-mouse at 60 mg/kg, po after 4 hrs. It is filed as ADME, organism-based. Details: dose 60 mg/kg, route oral.
Data set [27] in a line: Drug uptake in human MDA-MB-231 cells xenografted mouse tumor at 10 mg/kg. The settings on record: in vivo, read-out: Drug uptake. Details: dose 10 mg/kg. It is filed as ADME, organism-based, Neoplasm.
Data set [28] in a line: Drug uptake in human MDA-MB-231 cells xenografted mouse tumor at 30 mg/kg. It is filed as ADME, organism-based, Neoplasm. Details: dose 30 mg/kg. The settings on record: in vivo, read-out: Drug uptake.
Data set [29] can be described thus: Plasma concentration in athymic nu/nu mouse bearing human HT-29 tumor at 10 to 100 mg/kg, po administered QD for 14 days. It is filed as ADME, organism-based. Details: dose 10-100 mg/kg, route oral.
Data set [30] is described as follows: Oral bioavailability in rat. It is filed as ADME, organism-based. The settings on record: in vivo.
Data set [31] is described as follows: Clearance in rat. Format: ADME, organism-based. The settings on record: in vivo.

As to `CCN1CCC(Nc2ccc3c(c2)C(=C(c2ccccc2)c2nc4ccccc4[nH]2)C(=O)N3)CC1` (mixture of isomers), the AUC(0-inf) (usually the area under the concentration-time curve extrapolated to infinity) in data set [1] was determined as 1.44 µM·h. In [2], the bioavailability (in general, dose-corrected exposure relative to a reference, in per cent) amounted to 37%. For the same compound, the half-life (commonly the time in which the quantity being followed falls by half) in data set [3] was 5.7 h.
Turning to `CCN1CCC(Nc2ccc3c(c2)C(=C(c2cccc(F)c2)c2nc4ccccc4[nH]2)C(=O)N3)CC1` (mixture of isomers), in [1], the AUC(0-inf) was 1.99 µM·h. Further, the bioavailability in [2] came out at 63%. The half-life in data set [3] was 4.4 h.
In data set [1], `CCN1CCC(Nc2ccc3c(c2)C(=C(c2cccc(F)c2)c2ncc[nH]2)C(=O)N3)CC1` (mixture of isomers) showed an AUC(0-inf) of 1.12 µM·h. In data set [2], the bioavailability came to 15%. For the same compound, the half-life in data set [3] was 5.4 h.
Consider `CCN1CCC(Nc2ccc3c(c2)C(=C(c2ccc(Cl)cc2)c2ncc[nH]2)C(=O)N3)CC1` (mixture of isomers), for which the Drug uptake result (in the data set on Lung; in data set [11]; in data set [14]) was “BLD” each time. Besides, the concentration with Plasma [4] was determined as 260 nM; in [7] it was 3600 nM; in the data set with Plasma [9] it was 200 nM; in the data set with Plasma [10] it was 40 nM; with Plasma [12], 10 nM; in the data set on Plasma [13] it was 800 nM. Besides, the concentration in data set [16] was found to be 8800 nM; in [27] it was 340 nM; in data set [28], 1400 nM. Also, the concentration at 4 h is 280 nM in [5]; 70 nM in data set [8]; 10 nM in data set [15]; 3550 nM in [17]; 20 nM in [18]; 10 nM in data set [20]. The concentration at 4 h came out at 4 nM in [21]; 620 nM in [22]; 470 nM in data set [24]; 810 nM in data set [25]; 10 nM in data set [26]. Moreover, the Cp result in the data set on Plasma [6] is recorded as “BLD”. This compound returned an AUC(0-inf) in data set [1] of 5.04 µM·h. Further, in data set [2], the bioavailability worked out at 63%. Besides, the Papp in data set [19] turned out to be 6.8 ×10⁻⁶ cm/s. The same compound had a half-life in [3] of 10.7 h. The concentration at 336 h in data set [23] and in data set [29] was 1000 nM each time.
Turning to `CCN1CCC(Nc2ccc3c(c2)C(=C(c2ccccc2)c2ncc[nH]2)C(=O)N3)CC1` (mixture of isomers), the AUC(0-inf) in data set [1] was determined as 1.5 µM·h. In addition, in data set [2], the bioavailability amounted to 16%. Moreover, the half-life in [3] is 11.6 h.
Taken in the same sequence, the figures for `CCN1CCC(Nc2ccc3c(c2)C(=C(c2cc(F)cc(F)c2)c2nc4ccccc4[nH]2)C(=O)N3)CC1` (mixture of isomers) were 3.14 µM·h, 72% and 3.8 h.
As for `CCN1CCC(Nc2ccc3c(c2)C(=C(c2cc(F)cc(F)c2)c2nc(C)c[nH]2)C(=O)N3)CC1` (mixture of isomers), the AUC(0-inf) in [1] is 5.19 µM·h. Moreover, the bioavailability in data set [2] was 59%. Further, the half-life in data set [3] is 7.2 h.
Taken in the same sequence, the figures for `CCN1CCC(Nc2ccc3c(c2)C(=C(c2ccc(C)cc2)c2nc4ccccc4[nH]2)C(=O)N3)CC1` (mixture of isomers) were 2.36 µM·h, 55% and 4.6 h.
In the case of `CCN1CCC(Nc2ccc3c(c2)C(=C(c2ccccc2)c2nc4cc(OC)ccc4[nH]2)C(=O)N3)CC1` (mixture of isomers), the bioavailability in [30] was determined as 19%. Further, the clearance (usually a measure of how efficiently the substance is removed, as volume per time) in data set [31] is 108 mL/min/kg.
`CCN1CCC(Nc2ccc3c(c2)C(=C(c2cccc(F)c2)c2ncc(C)[nH]2)C(=O)N3)CC1` (mixture of isomers) returned an AUC(0-inf) in data set [1] of 1.9 µM·h. The bioavailability in data set [2] is 20%. This compound also had a half-life in [3] of 4.6 h.
Taken in the same sequence, the figures for `CCN1CCC(Nc2ccc3c(c2)C(=C(c2ccc(OC)cc2)c2nc4ccccc4[nH]2)C(=O)N3)CC1` (mixture of isomers) were 0.33 µM·h, 27% and 7.5 h.
`CCN1CCC(Nc2ccc3c(c2)C(=C(c2nc(C)c[nH]2)c2ccccc2F)C(=O)N3)CC1` (mixture of isomers) came in with an area under the curve AUC(0-inf) in data set [1] of 1.03 µM·h. In data set [2], this compound returned a bioavailability of 25%. Moreover, the half-life in data set [3] is 2.3 h.

The values above are taken from ChEMBL document CHEMBL2086224, “The design, synthesis, and biological evaluation of potent receptor tyrosine kinase inhibitors” (Bioorg Med Chem Lett, 2012).
